Results: the NIST ThermoML archive (doi:10.1021/je3013638)
Numbers after ± are expanded uncertainties.

Settings: Liquid, Closed cell (Static) method

Nc1cc(Cl)cc(Cl)c1 [3,5-dichloroaniline]
Settings	vapor or sublimation pressure [kPa]
446.6 K	10.25 ± 0.13
453.88 K	12.95 ± 0.15
457.69 K	14.44 ± 0.17
463.14 K	16.64 ± 0.19
464.4 K	17.2 ± 0.2
466.41 K	18.21 ± 0.22
468.53 K	19.57 ± 0.23
469.09 K	19.87 ± 0.22
470.18 K	20.2 ± 0.23
473.66 K	22.16 ± 0.3
474.48 K	23.01 ± 0.28
475.29 K	23.48 ± 0.26
477.65 K	24.67 ± 0.28
481.31 K	27.19 ± 0.32
484.05 K	29.6 ± 0.33
487.88 K	32.05 ± 0.36
490.85 K	35.09 ± 0.41
492.54 K	36.63 ± 0.41
495.3 K	38.71 ± 0.43
497.31 K	41.11 ± 0.46
500.72 K	44.06 ± 0.49
503.96 K	47.64 ± 0.53
507.34 K	51.52 ± 0.58
509.76 K	55.17 ± 0.62
512.08 K	58.05 ± 0.63
513.94 K	60.01 ± 0.66
516.09 K	63.13 ± 0.71
518.15 K	66.66 ± 0.74
519.82 K	68.55 ± 0.75
521.75 K	71.6 ± 0.81
523.61 K	75.31 ± 0.84
525.72 K	78.65 ± 0.85
528.31 K	82.54 ± 0.91
530.51 K	87.17 ± 0.96
532.9 K	91.08 ± 1
534.94 K	95.84 ± 1.1
